In the experiment the target is CK2A1 (CK2α/β) (Homo sapiens, UniProt P68400). Kind of experiment: CK2 kinase assay, CK2A1 (CK2α/β). It counts as biochemical. As to conditions: Table A; read-out: CK2A1 (CK2α/β) (IC50).
CK2A1 (CK2α/β), sequence (P68400 whole entry, species assumed): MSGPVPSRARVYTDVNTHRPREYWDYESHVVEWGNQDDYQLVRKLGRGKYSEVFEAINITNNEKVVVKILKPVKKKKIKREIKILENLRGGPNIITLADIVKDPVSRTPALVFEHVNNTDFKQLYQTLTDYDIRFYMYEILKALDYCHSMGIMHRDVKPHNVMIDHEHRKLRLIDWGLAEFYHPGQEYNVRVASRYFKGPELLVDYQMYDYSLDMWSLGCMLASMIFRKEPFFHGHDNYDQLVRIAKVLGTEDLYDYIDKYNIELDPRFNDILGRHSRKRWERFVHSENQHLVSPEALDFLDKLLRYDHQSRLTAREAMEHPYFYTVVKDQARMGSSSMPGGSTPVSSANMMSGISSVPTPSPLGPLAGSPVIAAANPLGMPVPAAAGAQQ
CK2A1 (CK2α/β), sequence (P67870 whole entry partner, species assumed): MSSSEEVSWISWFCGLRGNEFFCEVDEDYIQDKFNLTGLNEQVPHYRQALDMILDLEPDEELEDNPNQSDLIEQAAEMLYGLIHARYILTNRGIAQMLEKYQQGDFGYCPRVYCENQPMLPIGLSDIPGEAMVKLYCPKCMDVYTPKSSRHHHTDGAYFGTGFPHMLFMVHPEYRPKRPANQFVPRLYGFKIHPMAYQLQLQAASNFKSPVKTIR
For `CC(O)C(=O)N1CCN(c2cc(C#N)cc(Nc3nc(NC4CC4)c4ncc(C#N)n4n3)c2Cl)CC1` (racemic) [Example 80, (+/−) 2-((2-chloro-5-cyano-3-(4-lactoyl-1-piperazinyl)phenyl)amino)-4-(cyclopropylamino) imidazo[2,1-f][1,2,4] triazine-7-carbonitrile], the IC50 stood at 0.47 nM.

Take `CN1CCC(c2cc(C#N)cc(Nc3nc(NC4CC4)c4ncc(C#N)n4n3)c2Cl)CC1` [Example 209, 2-(2-chloro-5-cyano-3-(1-methylpiperidin-4-yl)phenylamino)-4-(cyclopropylamino)imidazo[1,2,f][1,2,4]triazine-7-carbonitrile]: the IC50 stood at 0.56 nM. For `CCNc1nc(Nc2cc(C#N)cc(N3CCN(C4CN(CC(O)CF)C4)CC3)c2Cl)nn2c(C#N)cnc12` (centres unmarked) [Example 586, 2-[(2-chloro-5-cyano-3-{4-[1-(3-fluoro-2-hydroxypropyl)azetidin-3-yl]piperazin-1-yl}phenyl)amino]-4-(ethylamino)imidazo[2,1-f][1,2,4]triazine-7-carbonitrile] the value was 1.58 nM; for `CN(CCNC1COC1)c1cc(Cl)c(Nc2nc(NC3CC3)c3ncc(C#N)n3n2)cc1C#N` [Example 413, 2-((2-chloro-5-cyano-4-(methyl(2-(oxetan-3-ylamino)ethyl)amino)phenyl)amino)-4-(cyclopropylamino)imidazo[2,1-f][1,2,4]triazine-7-carbonitrile], 0.39 nM.

Take `CC(CO)N1CCN(c2cc(C#N)cc(Nc3nc(NC4CC4)c4ncc(C#N)n4n3)c2Cl)CC1` (racemic) [Example 54, (+/−) 2-((2-chloro-5-cyano-3-(4-(2-hydroxy-1-methylethyl)-1-piperazinyl)phenyl)amino)-4-(cyclopropylamino) imidazo[2,1-f][1,2,4] triazine-7-carbonitrile]: the IC50 was found to be 1.61 nM. As to `COC(=O)Nc1cc(Nc2nc(NC3CC3)c3ncc(C#N)n3n2)c(Cl)c(N2CC(N3CCN(C)CC3)C2)c1` [Example 203, methyl (4-chloro-3-((7-cyano-4-(cyclopropylamino)imidazo[2,1-f][1,2,4]triazin-2-yl)amino)-5-(3-(4-methyl-1-piperazinyl)-1-azetidinyl)phenyl)carbamate], the IC50 stood at 1.79 nM.

`N#Cc1cc(Nc2nc(NC3CC3)c3ncc(C#N)n3n2)c(Cl)c(C2CCN(C3CCN(C4CC4)CC3)CC2)c1` [Example 213, 2-(2-chloro-5-cyano-3-(1′-cyclopropyl-1,4′-bipiperidin-4-yl)phenylamino)-4-(cyclopropylamino)imidazo[1,2-f][1,2,4]triazine-7-carbonitrile]: the IC50 turned out to be 4 nM. `CCNc1nc(Nc2cc(C#N)cc(N3CC[C@@H]4[C@@H](C3)OC(=O)N4[C@H]3CCOC3)c2Cl)nn2c(C#N)cnc12` (single isomer, unassigned) [Example 842]: the IC50 is 2.05 nM.

In the case of `COC1CCN(C2CN(c3cc(C(F)F)cc(Nc4nc(NC5CC5)c5ncc(C#N)n5n4)c3Cl)C2)CC1` [Example 260, 2-((2-chloro-5-(difluoromethyl)-3-(3-(4-methoxy-1-piperidinyl)-1-azetidinyl)phenyl)amino)-4-(cyclopropylamino)imidazo[2,1-f][1,2,4]triazine-7-carbonitrile], the IC50 is 2.12 nM. As for `N#Cc1cc(Nc2nc(NC3CC3)c3ncc(C#N)n3n2)c(Cl)c(N2CCC(NC3CCOCC3)CC2)c1` [Example 125, 2-((2-chloro-5-cyano-3-(4-(tetrahydro-2H-pyran-4-ylamino)-1-piperidinyl)phenyl)amino)-4-(cyclopropylamino)imidazo [2,1-f][1,2,4]triazine-7-carbonitrile], the IC50 is 0.75 nM. For the compound `CC(=O)OC(C)(C)C(=O)N1CCC(c2cc(C#N)cc(Nc3nc(NC4CC4)c4ncc(C#N)n4n3)c2Cl)CC1` [Example 228, 2-(4-(2-chloro-5-cyano-3-((7-cyano-4-(cyclopropylamino)imidazo[2,1-f][1,2,4]triazin-2-yl)amino)phenyl)-1-piperidinyl)-1,1-dimethyl-2-oxoethyl acetate], the IC50 is 0.51 nM. As for `CN1CC(OC(=O)N2CCN(c3cc(C#N)cc(Nc4nc(NC5CC5)c5ncc(C#N)n5n4)c3Cl)CC2)C1` [Example 592, 1-methylazetidin-3-yl 4-(2-chloro-5-cyano-3-{[7-cyano-4-(cyclopropylamino)imidazo [2,1-f][1,2,4]triazin-2-yl]amino}phenyl) piperazine-1-carboxylate], the IC50 turned out to be 0.44 nM.

On to `C=C(C)/C=C/CN1CCN(c2cc(C#N)cc(Nc3nc(NC4CC4)c4ncc(C#N)n4n3)c2Cl)CC1` [Example 530, (E)-2-((2-chloro-5-cyano-3-(4-(4-methylpenta-2,4-dien-1-yl)piperazin-1-yl)phenyl)amino)-4-(cyclopropylamino)imidazo[2,1-f][1,2,4]triazine-7-carbonitrile], for which the IC50 turned out to be 6.24 nM.

`N#Cc1cc(Nc2nc(NC3CC3)c3ncc(C#N)n3n2)c(Cl)c(N2CCN(C(=O)CCCS(N)(=O)=O)CC2)c1` [Example 93, 4-(4-(2-chloro-5-cyano-3-((7-cyano-4-(cyclopropylamino)imidazo[2,1-f][1,2,4]triazin-2-yl)amino)phenyl)-1-piperazinyl)-4-oxo-1-butanesulfonamide]: the IC50 is 0.46 nM. For `N#Cc1cc(CN2CCNC(C(F)(F)F)C2)c(Cl)c(Nc2nc(NC3CC3)c3ncc(C#N)n3n2)c1` (racemic) [Example 696, (+/−)-2-((2-chloro-5-cyano-3-((3-(trifluoromethyl)piperazin-1-yl)methyl)phenyl)amino)-4-(cyclopropylamino)imidazo[2,1-f][1,2,4]triazine-7-carbonitrile] the value was 1.48 nM. Consider `N#Cc1cc(Nc2nc(NC3CC3)c3ncc(C#N)n3n2)c(Cl)c(N2CCC(NCC3CC3)CC2)c1` [Example 136, 2-((2-chloro-5-cyano-3-(4-((cyclopropylmethyl)amino)-1-piperidinyl)phenyl)amino)-4-(cyclopropylamino)imidazo [2,1-f][1,2,4]triazine-7-carbonitrile], for which the IC50 is 22 nM.

In the case of `CS(=O)(=O)N[C@@H]1CCN(c2cc(C#N)cc(Nc3nc(NC4CC4)c4ncc(C#N)n4n3)c2Cl)C[C@H]1O` [Example 175, N-((3R,4R)-1-(2-chloro-5-cyano-3-((7-cyano-4-(cyclopropylamino)imidazo[2,1-f][1,2,4]triazin-2-yl)amino)phenyl)-3-hydroxypiperidin-4-yl)methanesulfonamide], the IC50 was determined as 1.06 nM. For `CC(C)(O)C1CN(C2CCN(c3cc(C#N)cc(Nc4nc(NC5CC5)c5ncc(C#N)n5n4)c3Cl)CC2)CCO1` (racemic) [Example 148, (+/−) 2-((2-chloro-5-cyano-3-(4-(2-(1-hydroxy-1-mcthylethyl)-4-morpholinyl)-1-piperidinyl)phenyl)amino)-4-(cyclopropylamino)imidazo [2,1-f][1,2,4]triazine-7-carbonitrile] the value was 1.03 nM; for `CCNc1nc(Nc2cc(C#N)cc(N3CC[C@@H](NC(=O)OC)[C@H](N(C)C4COC4)C3)c2Cl)nn2c(C#N)cnc12` [Example 750, methyl ((3R,4R)-1-(2-chloro-5-cyano-3-((7-cyano-4-(ethylamino)imidazo[2,1-f][1,2,4]triazin-2-yl)amino)phenyl)-3-(methyl(oxetan-3-yl)amino)piperidin-4-yl)carbamate], 0.9 nM. The result for `CCNc1nc(Nc2cc(C#N)cc(C3CCN(C(C)C(N)=O)CC3)c2Cl)nn2c(C#N)cnc12` (racemic) [Example 640, (+/−)-2-(4-(2-chloro-5-cyano-3-((7-cyano-4-(ethylamino)imidazo[2,1-f][1,2,4]triazin-2-yl)amino)phenyl)piperidin-1-yl)propanamide] reads 2.22 nM. For `CCOC1CC1C(=O)N1CC(N2CCN(c3cc(C#N)cc(Nc4nc(NC5CC5)c5ncc(C#N)n5n4)c3Cl)CC2)C1` (centres unmarked) [Example 520, 2-[(2-chloro-5-cyano-3-{4-[1-(2-ethoxycyclopropane-carbonyl)azetidin-3-yl]piperazin-1-yl}phenyl)amino]-4-(cyclopropylamino)imidazo[2,1-f][1,2,4]triazine-7-carbonitrile] the value was 4.96 nM; for `CC(=O)N1CCN(C2CN(c3cc(C#N)cc(Nc4nc(NC5CC5)c5ncc(C#N)n5n4)c3Cl)C2)CC1` [Example 541, 2-((3-(3-(4-acetylpiperazin-1-yl)azetidin-1-yl)-2-chloro-5-cyanophenyl)amino)-4-(cyclopropylamino)imidazo[2,1-f][1,2,4]triazine-7-carbonitrile], 0.57 nM. For `COC(=O)N1CC(N2CCC(c3cc(C#N)cc(Nc4nc(NC5CC5)c5ncc(C#N)n5n4)c3Cl)CC2)C1` [Example 320, methyl 3-(4-(2-chloro-5-cyano-3-((7-cyano-4-(cyclopropylamino)imidazo[2,1-f][1,2,4]triazin-2-yl)amino)phenyl)piperidin-1-yl)azetidine-1-carboxy], the IC50 is 0.35 nM. The result for `CNC(=O)CN1CCC(c2cc(C#N)cc(Nc3nc(NC4CC4)c4ncc(C#N)n4n3)c2Cl)CC1` [Example 642, 2-(4-(2-chloro-5-cyano-3-((7-cyano-4-(cyclopropylamino)imidazo[2,1-f][1,2,4]triazin-2-yl)amino)phenyl)piperidin-1-yl)-N-methylacetamide] reads 0.76 nM; that for `N#Cc1cc(Nc2nc(NC3CC3)c3ncc(C#N)n3n2)c(Cl)c(N2CCN(C3CN(C(=O)C4CCC(O)CC4)C3)CC2)c1` (centres unmarked) [Example 512, 2-[(2-chloro-5-cyano-3-{4-[1-(4-hydroxycyclohexane-carbonyl)azetidin-3-yl]piperazin-1-yl}phenyl)amino]-4-(cyclopropylamino)imidazo[2,1-f][1,2,4]triazine-7-carbonitrile], 5.8 nM; that for `CC(C)(C)NCc1cc(C#N)cc(Nc2nc(NC3CC3)c3ncc(C#N)n3n2)c1Cl` [Example 468, 2-({3-[(tert-butylamino)methyl]-2-chloro-5-cyanophenyl}amino)-4-(cyclopropylamino)imidazo[2,1-f][1,2,4]triazine-7-carbonitrile], 0.3 nM.

(Values after patent US9273057B2 (Bristol-Myers Squibb Company, priority 2012, dated 2016).)
